# From the supplement of paper PMC10307832
# Experiments:
# Test in all cases: relative viability (nuclei count vs DMSO), 5 days (fraction); higher = more cells survive
# AT9283 + Pemetrexed = compound: O=C(Nc1c[nH]nc1-c1nc2ccc(CN3CCOCC3)cc2[nH]1)NC1CC1 [AT9283] + Nc1nc2[nH]cc(CCc3ccc(C(=O)N[C@@H](CCC(=O)O)C(=O)O)cc3)c2c(=O)[nH]1 [Pemetrexed] (partner 0.2 µM)
# In short: (§1)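 Lung cancer cell lines were pin-tool dosed in 1536-well plates on the day after seeding, with either a lone drug or a fixed anchor-drug dose plus five library-drug doses (not always all listed) in √10 steps. Nuclei were counted on 4× images after 5 days. Relative viability is the ratio of treated-well to vehicle-well nuclei counts, with each value a median of duplicate plates.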
# AT9283 + OSI-027 = compound: O=C(Nc1c[nH]nc1-c1nc2ccc(CN3CCOCC3)cc2[nH]1)NC1CC1 [AT9283] + COc1cccc2cc(-c3nc([C@H]4CC[C@H](C(=O)O)CC4)n4ncnc(N)c34)[nH]c12 [OSI-027] (partner 0.5 µM)
# In short: as §1
# Erlotinib + Phenformin = compound: C#Cc1cccc(Nc2ncnc3cc(OCCOC)c(OCCOC)cc23)c1 [Erlotinib] + N=C(N)NC(=N)NCCc1ccccc1 [Phenformin] (partner 250 µM)
# In short: as §1
# AT9283 + Phenformin = compound: O=C(Nc1c[nH]nc1-c1nc2ccc(CN3CCOCC3)cc2[nH]1)NC1CC1 [AT9283] + N=C(N)NC(=N)NCCc1ccccc1 [Phenformin] (partner 250 µM)
# In short: as §1
# Erlotinib + Luminespib = compound: C#Cc1cccc(Nc2ncnc3cc(OCCOC)c(OCCOC)cc23)c1 [Erlotinib] + CCNC(=O)c1noc(-c2cc(C(C)C)c(O)cc2O)c1-c1ccc(CN2CCOCC2)cc1 [Luminespib] (partner 0.01 µM)
# In short: as §1
Cell Line,relative viability (AT9283 + Pemetrexed; first compound 0.003 µM),relative viability (AT9283 + Pemetrexed; first compound 0.03 µM),relative viability (AT9283 + Pemetrexed; first compound 0.09487 µM),relative viability (AT9283 + Pemetrexed; first compound 0.3 µM),relative viability (AT9283 + OSI-027; first compound 0.003 µM),relative viability (AT9283 + OSI-027; first compound 0.03 µM),relative viability (AT9283 + OSI-027; first compound 0.09487 µM),relative viability (AT9283 + OSI-027; first compound 0.3 µM),relative viability (Erlotinib + Phenformin; first compound 0.02 µM),relative viability (Erlotinib + Phenformin; first compound 0.2 µM),relative viability (Erlotinib + Phenformin; first compound 0.6325 µM),relative viability (Erlotinib + Phenformin; first compound 2 µM),relative viability (AT9283 + Phenformin; first compound 0.003 µM),relative viability (AT9283 + Phenformin; first compound 0.03 µM),relative viability (AT9283 + Phenformin; first compound 0.09487 µM),relative viability (AT9283 + Phenformin; first compound 0.3 µM),relative viability (Erlotinib + Luminespib; first compound 0.02 µM),relative viability (Erlotinib + Luminespib; first compound 0.2 µM),relative viability (Erlotinib + Luminespib; first compound 0.6325 µM),relative viability (Erlotinib + Luminespib; first compound 2 µM)
NCI-H460,0.0566,0.0638,0.0674,0.0587,0.678,0.81,0.248,0.0423,0.524,0.512,0.541,0.466,0.517,0.508,0.0947,0.0363,0.03,0.0268,0.033,0.0356
HCC-44,0.629,0.666,0.564,0.694,0.466,0.555,0.185,0.21,0.239,0.162,0.22,0.165,0.124,0.169,0.106,0.0704,0.912,1.02,1.62,1.03
NCI-H2087,0.664,0.586,0.261,0.183,0.637,0.392,0.14,0.134,0.516,0.483,0.506,0.304,0.458,0.251,0.111,0.118,0.253,0.15,0.224,0.152
UMC-11,0.768,0.158,0.196,0.193,0.559,0.17,0.152,0.167,0.334,0.281,0.301,0.287,0.308,0.184,0.178,0.171,1.05,0.93,1.32,1.11
NCI-H1355,0.989,1.02,0.719,0.301,0.399,0.436,0.276,0.221,0.474,0.493,0.458,0.414,0.478,0.449,0.362,0.238,–,0.597,0.658,0.557
H3255,0.544,0.553,0.46,0.238,0.683,0.659,0.548,0.306,0.374,0.226,0.246,0.243,0.403,0.328,0.273,0.255,0.768,0.531,0.326,0.295
NCI-H2085,0.959,0.9,0.537,0.441,0.896,0.731,0.553,0.321,0.762,0.493,0.528,0.472,0.702,0.664,0.597,0.264,0.412,0.352,0.308,0.339
LCLC-103H,0.447,0.411,0.343,0.324,0.396,0.451,0.415,0.276,0.335,0.347,0.356,0.289,0.295,0.356,0.331,0.205,0.99,0.884,1.05,0.821
NCI-H2405,0.995,0.977,0.324,0.22,0.685,0.654,0.533,0.262,0.449,0.347,0.401,0.404,0.415,0.362,0.28,0.251,0.6,0.655,0.598,0.755
NCI-H1666,0.775,0.818,0.718,0.612,0.782,0.811,0.636,0.483,0.562,0.584,0.522,0.533,0.587,0.516,0.404,0.35,0.969,0.941,1.01,0.713
COR-L 105,1.08,0.699,0.341,0.422,0.606,0.292,0.284,0.231,0.525,0.245,0.322,0.216,0.513,0.2,0.303,0.223,0.779,0.472,0.378,0.216
ABC-1,–,–,–,–,0.436,0.245,0.213,0.201,0.248,0.248,0.217,0.233,0.231,0.159,0.233,0.192,–,0.684,0.771,0.601
EPLC-272H,0.358,0.212,0.177,0.138,0.287,0.312,0.209,0.224,0.353,0.254,0.321,0.212,0.33,0.309,0.148,0.141,0.176,0.233,0.326,0.196
NCI-H1792,0.783,0.945,0.805,0.167,0.727,0.868,0.742,0.404,0.24,0.219,0.207,0.186,–,0.255,0.333,0.148,0.42,0.319,0.49,0.281
NCI-H2170,0.464,0.234,0.2,0.132,0.663,0.607,0.298,0.172,0.422,0.463,0.386,0.324,0.433,0.375,0.177,0.14,0.685,0.413,0.743,0.398
NCI-H2347,0.419,0.417,0.376,0.338,0.444,0.427,0.404,0.296,0.511,–,0.326,0.326,0.413,0.464,0.347,0.363,1.25,0.557,0.441,0.902
NCI-H1395,0.799,0.764,0.322,0.34,0.523,0.541,0.356,0.363,0.503,0.462,0.483,0.463,0.391,0.43,0.316,0.321,0.919,0.613,0.676,0.671
LU99A,0.162,0.184,0.139,0.112,0.297,0.233,0.166,0.155,0.942,0.794,0.886,0.841,0.804,0.441,0.17,0.199,0.27,0.257,0.231,0.223
NCI-H650,0.939,0.864,0.53,0.153,0.519,0.528,0.379,0.169,0.424,0.462,0.449,0.479,0.366,0.436,0.223,0.165,0.822,0.783,0.679,0.794
NCI-H522,0.949,0.78,0.746,0.499,0.665,0.57,0.549,0.567,0.602,0.615,0.691,0.612,0.555,0.481,0.44,0.377,1.16,0.954,1.15,0.965
HCC-827,0.281,0.247,0.236,0.207,0.694,0.647,0.597,0.181,0.232,0.144,0.139,0.133,0.399,0.352,0.356,0.196,0.238,0.218,0.211,0.182
201T,0.292,0.297,0.279,0.306,0.663,0.776,0.188,0.206,0.468,0.408,0.465,0.421,0.445,0.419,0.345,0.285,1.01,1.03,1.06,0.874
NCI-H2009,1.03,0.983,0.713,0.243,0.652,0.511,0.182,0.101,0.533,0.51,0.529,0.49,0.525,0.384,0.309,0.145,1.04,1.03,1.09,0.944
NCI-H1623,–,–,–,–,0.438,0.448,0.358,0.381,0.559,0.528,0.227,0.264,0.597,0.578,0.55,0.336,0.414,0.425,0.352,0.336
A549,–,–,–,–,–,–,–,–,0.225,0.196,0.178,0.199,0.284,0.0777,0.0526,0.0427,–,–,–,–
HCC-366,0.169,0.2,0.101,0.067,0.834,0.845,0.048,0.0995,0.599,0.661,0.601,0.567,0.609,0.657,0.0853,0.0845,–,–,–,–
NCI-H727,–,–,–,–,0.657,0.483,0.487,0.324,0.572,–,0.639,0.404,0.39,0.447,0.298,0.39,0.345,–,0.3,0.191
HCC-78,0.905,0.896,0.924,0.919,0.519,0.304,0.271,0.276,0.657,0.681,0.684,0.531,0.611,0.511,0.333,0.26,–,–,–,–
NCI-H1648,0.579,0.553,0.493,0.386,0.277,0.259,0.283,0.246,–,–,–,–,–,–,–,–,–,–,–,–
